Test results from the CheMixHub viscosity set.

Assay: xn = mol fraction of the nth substance listed

CCCC[n+]1ccn(C)c1.O=C([O-])C(F)(F)F + ClC(Cl)Cl
Settings	viscosity [mPa·s]
298.15 K, 101 kPa, x2 = 0.6467	9.74

CS(=O)(=O)[O-].C[NH+]1CCCC1=O + O
viscosity [mPa·s], 100 kPa
Settings	x1 = 0.00179	x1 = 0.003586	x1 = 0.005368	x1 = 0.008047	x1 = 0.01067	x1 = 0.01419	x1 = 0.02096	x1 = 0.0263	x1 = 0.03141
293.15 K	1.057	1.106	1.151	1.222	1.295	1.396	1.594	1.754	1.917
298.15 K	0.9409	0.9808	1.02	1.08	1.146	1.233	1.409	1.551	1.681
303.15 K	0.8421	0.8782	0.9124	0.9664	1.022	1.099	1.254	1.374	1.483
308.15 K	0.7603	0.7902	0.8191	0.8672	0.9163	0.9865	1.126	1.232	1.325

CCCCCCCCCCCC(=O)[O-].[Na+] + CCCCCCCC(=O)O
100 kPa, x1 = 0.2
Settings	viscosity [mPa·s]
293.15 K	60.29
298.15 K	47.97
303.15 K	38.68
308.15 K	31.58
313.15 K	26.09
318.15 K	21.79
323.15 K	18.38

ClCCCCCCCl + Cc1cc(C)cc(C)c1
viscosity [mPa·s], 101 kPa
Settings	x1 = 0.1049	x1 = 0.2004	x1 = 0.2961	x1 = 0.4028	x1 = 0.4994	x1 = 0.5986	x1 = 0.7	x1 = 0.7998	x1 = 0.9005
308.15 K	0.645	0.714	0.798	0.896	0.995	1.106	1.221	1.352	1.488
313.15 K	0.615	0.678	0.752	0.842	0.929	1.031	1.137	1.264	1.394
318.15 K	0.586	0.651	0.709	0.795	0.877	0.972	1.071	1.182	1.289

C=C(C)C(=O)OC + c1ccccc1
303.15 K, 101 kPa
Settings	viscosity [mPa·s]
x1 = 0.1019	0.5507
x1 = 0.198	0.543
x1 = 0.4005	0.5273
x1 = 0.4996	0.522
x1 = 0.5998	0.519
x1 = 0.8001	0.5141
x1 = 0.896	0.5142

CCCCC/C=C\C/C=C\CCCCCCCC(=O)OCC(COC(=O)CCCCCCC/C=C\C/C=C\CCCCC)OC(=O)CCCCCCC/C=C\C/C=C\CCCCC + c1ccccc1
viscosity [mPa·s], 101.3 kPa
Settings	x1 = 0.000427	x1 = 0.000515	x1 = 0.000838	x1 = 0.001044	x1 = 0.001751	x1 = 0.004505	x1 = 0.007049	x1 = 0.009645
298.15 K	0.6136	0.6153	0.6216	0.6257	0.6401	0.6974	0.7485	0.8054
303.15 K	0.5723	0.5739	0.5797	0.5836	0.597	0.6502	0.6975	0.7492
308.15 K	0.535	0.5365	0.5419	0.5455	0.558	0.6077	0.6515	0.6986

[I-].[Na+] + OCCO
101 kPa, x1 = 0.2
Settings	viscosity [mPa·s]
303 K	47.72
313 K	29.93
323 K	20.08

C=C(C)C(=O)OC + ClCCCl
303.15 K, 101 kPa
Settings	viscosity [mPa·s]
x1 = 0.1012	0.6868
x1 = 0.1978	0.6544
x1 = 0.3975	0.6068
x1 = 0.4985	0.5867
x1 = 0.6234	0.5632
x1 = 0.8713	0.5284

CC(O)CNCC(C)O (configuration not stated) + O
viscosity [mPa·s]
Settings	293.15 K	298.15 K	303.15 K	308.15 K	313.15 K	318.15 K	323.15 K
101 kPa, x1 = 0.023	–	–	–	–	–	1.095	–
101 kPa, x1 = 0.03	–	–	–	1.695	–	–	–
101.3 kPa, x1 = 0.0071	1.261	1.097	0.958	0.834	0.738	–	0.597
101.3 kPa, x1 = 0.0148	1.61	1.37	1.211	1.046	0.914	–	0.775
101.3 kPa, x1 = 0.0329	2.803	2.363	2.08	1.803	1.54	–	1.2

CC(=O)Oc1ccccc1 + CCCCCOC(C)=O
Settings	viscosity [mPa·s]
298.15 K, 101 kPa, x1 = 0.5	0.9319

ClCCCCCCCl + Cc1ccc(C)cc1
viscosity [mPa·s], 101 kPa
Settings	x1 = 0.08955	x1 = 0.1825	x1 = 0.2818	x1 = 0.3684	x1 = 0.4454	x1 = 0.5735	x1 = 0.6793	x1 = 0.7843	x1 = 0.8888
308.15 K	0.586	0.645	0.722	0.802	0.878	1.027	1.154	1.307	1.45
313.15 K	0.558	0.621	0.686	0.756	0.83	0.972	1.095	1.242	1.378
318.15 K	0.534	0.595	0.653	0.714	0.78	0.899	1.014	1.134	1.267

C[N+](C)(C)CCC[N+]1(C)CCCCC1.N#C[N-]C#N.N#C[N-]C#N + CO
viscosity [mPa·s], 100 kPa
Settings	303.15 K	313.15 K	323.15 K
x1 = 0.0999	–	–	2.735
x1 = 0.7998	918.9	488.5	–
